Source: PubChem BioAssay AID2060892 (Molecular Pharmacology Branch, DTP, NCI, 2025)
Several values for one entry are separate records, joined by “and”; a condition that tells them apart may be missing. Equal entries are not always repeated.

Tested on: HOP-62 complex spheroids with HUVEC/MSC, viability
Experiment: Anticancer human tumor HOP-62 cell line growth inhibition [RAS];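 note: spheroids exposed to agents for seven days before readout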;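 for viability, T/C: 100% = DMSO vehicle control viability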
Conditions: for viability, T/C: stronger effect = lower value
Source text: RAS pathway inhibitors in Combinations in Complex Spheroids
A high-throughput screen of multi-cell type tumor spheroids was designed to identify active combinations of RAS pathway inhibitors and targeted small molecules. Complex spheroids include a stromal component modeled by human endothelial cells (HUVEC) and fibroblasts modeled by human mesenchymal stem cells (MSCs). The concentration ranges selected for each drug and investigational agent were based upon clinically achievable concentrations if the clinical Cmax of the agent was known.
Compounds. The drugs and investigational agents: abemaciclib (NSC768073), cobimetinib (NSC768068), divarasib (GDC6063, NSC841802), docetaxel (NSC628503), GDC-1971 (RLY-1971, NSC841576), gemcitabine (NSC613327), inavolisib (NSC800729), ipatasertib (NSC767898), KB-0742 (NSC834161), MRTX-1133 (NSC836407), osimertinib (NSC779217), RMC-4630 (NSC839698), RMC-6236 (NSC851965), RMC-6291 (NSC852671), Ro-3306 (NSC812927), sapanisertib (NSC764658), SN-38 (NSC673596), staurosporine (NSC755774), SY5609 (NSC837396), and tovorafenib (DAY101, NSC766906), were obtained from the National Cancer Institute (NCI) Developmental Therapeutics Program Chemical Repository. The FDA-approved anticancer drug set is available from the NCI Developmental Therapeutics Program. […] The stock solutions were prepared in dimethyl sulfoxide (DMSO, Sigma-Aldrich, St. Louis, MO, cat. D2650) at 800-fold the tested concentration and stored at -70 degrees C prior to their use. All drugs and investigational agents were tested over a range starting from a high concentration at or near the clinical Cmax and decreasing in half-log increments. If the clinical Cmax for an agent had not been determined, the highest concentration tested was 10 microM.
Cell Culture. All cells were maintained in an incubator at 37 degrees C and 5% CO2 with 95% humidity. The PDC lines were cultured according to standard operating procedures established by the NCI PDMR. All PDCs were thawed and cultured in Matrigel-coated flasks prepared with a working solution of 1X Ham's F-12 nutrient mix, without supplementation (Invitrogen, Waltham, MA, cat. 11765054), 100 U/mL penicillin-streptomycin (Invitrogen, cat. 15140122), and 2.5% Matrigel (Corning Inc., Corning, NY, cat. 354248) for the first three passages. The 362531-283-R-J2-PDC and 782815-120-R-J1-PDC lines were cultured in 6C/Colon 1B media, which includes advanced DMEM/F-12 (Thermo Fisher Scientific, cat. 12634028), 10 mM HEPES (Thermo Fisher Scientific, cat. 15630080), 1X GlutaMAX supplement (Thermo Fisher Scientific, cat. 35050061), 0.1 mg/mL primocin (InvivoGen, San Diego, CA, cat. ant-pm-2), 10% defined fetal bovine serum, heat inactivated (HyClone Laboratories Inc., Logan, UT, cat. SH30070.03HI), 50% L-WRN conditioned media (ATCC, cat. CRL-3276), 1.25 mM N-Acetyl-L-cysteine (Sigma-Aldrich, cat. A9165), 10 mM nicotinamide (Sigma-Aldrich, cat. N0636), 1X B-27 supplement (Thermo Fisher Scientific, cat. 17504044), 1X N-2 supplement (Thermo Fisher Scientific, cat. 17502048), 50 ng/mL human EGF (Thermo Fisher Scientific, cat. PHG0311), and 10 microM Y-27632 dihydrochloride (Tocris Bioscience, cat. 1254). The K12877-001-R-J1-PDC line was cultured in 6I media, which includes all 6C/Colon 1B media plus 10 ng/mL human FGF-10 (PeproTech, cat. 100-26), 1 ng/mL human FGF-2 (PeproTech, cat. 100-18B), 1 µM prostaglandin E2 (Tocris Bioscience, cat. 2296), […] hydrocortisone (Sigma-Aldrich, cat. H4001), and […] bovine insulin (Sigma-Aldrich, cat. I6634). The K86415-001-R-J1-PDC line was cultured in 6D media, which includes all 6C/Colon 1B media components minus the L-WRN conditioned media. The 485176-168-R4-J1-PDC was cultured in PANC media, which includes all 6C/Colon 1B media plus 100 ng/mL human FGF-10 (PeproTech, cat. 100-26), 500 nM SB-431542 (Selleckchem, cat. S1067), and 10 nM gastrin (Tocris Bioscience, cat. 3006). […]

SMILES: C=CC(=O)N1CCN(c2nc(OCC3CCCN3C)nc3c(F)c(-c4nc(N)cc(C)c4C(F)(F)F)c(Cl)cc23)C(C)C1 (stereo unspecified) + CCn1c(-c2cccnc2C(C)OC)c2c3cc(ccc31)N1CCOC(CC(NC(=O)C(C(C)C)N(C)C(=O)C3(F)CCN(C(=O)C#CC(C)(C)N(C)C)CC3)C(=O)N3CCCC(N3)C(=O)OCC(C)(C)C2)C1
- IC50 (curve of first compound, second compound 0.000949 µM): > 1000 nM
- IC50 (curve of first compound, second compound 0.003 µM): > 1000 nM
- IC50 (curve of first compound, second compound 0.00949 µM): > 1000 nM
- IC50 (curve of first compound, second compound 0.03 µM): > 1000 nM
- IC50 (curve of first compound, second compound 0.0949 µM): > 1000 nM
- IC50 (curve of first compound, second compound 0.3 µM): > 1000 nM
- viability, T/C (second compound 0.000949 µM, first compound 0.00316 µM): 103%
- viability, T/C (second compound 0.000949 µM, first compound 0.01 µM): 101%
- viability, T/C (second compound 0.000949 µM, first compound 0.0316 µM): 69.5%
- viability, T/C (second compound 0.000949 µM, first compound 0.1 µM): 88.2%
- viability, T/C (second compound 0.000949 µM, first compound 0.316 µM): 95.6%
- viability, T/C (second compound 0.000949 µM, first compound 1 µM): 71.1%
- viability, T/C (second compound 0.003 µM, first compound 0.00316 µM): 88.7%
- viability, T/C (second compound 0.003 µM, first compound 0.01 µM): 87.3%
- viability, T/C (second compound 0.003 µM, first compound 0.0316 µM): 76.8%
- viability, T/C (second compound 0.003 µM, first compound 0.1 µM): 92.5%
- viability, T/C (second compound 0.003 µM, first compound 0.316 µM): 84.9%
- viability, T/C (second compound 0.003 µM, first compound 1 µM): 72.9%
- viability, T/C (second compound 0.00949 µM, first compound 0.00316 µM): 90.4%
- viability, T/C (second compound 0.00949 µM, first compound 0.01 µM): 87.6%
- viability, T/C (second compound 0.00949 µM, first compound 0.0316 µM): 85.3%
- viability, T/C (second compound 0.00949 µM, first compound 0.1 µM): 89.8%
- viability, T/C (second compound 0.00949 µM, first compound 0.316 µM): 91%
- viability, T/C (second compound 0.00949 µM, first compound 1 µM): 74.7%
- viability, T/C (second compound 0.03 µM, first compound 0.00316 µM): 91.3%
- viability, T/C (second compound 0.03 µM, first compound 0.01 µM): 92%
- viability, T/C (second compound 0.03 µM, first compound 0.0316 µM): 87.7%
- viability, T/C (second compound 0.03 µM, first compound 0.1 µM): 94.9%
- viability, T/C (second compound 0.03 µM, first compound 0.316 µM): 79.1%
- viability, T/C (second compound 0.03 µM, first compound 1 µM): 84.3%
- viability, T/C (second compound 0.0949 µM, first compound 0.00316 µM): 86.5%
- viability, T/C (second compound 0.0949 µM, first compound 0.01 µM): 91.2%
- viability, T/C (second compound 0.0949 µM, first compound 0.0316 µM): 83.3%
- viability, T/C (second compound 0.0949 µM, first compound 0.1 µM): 92.7%
- viability, T/C (second compound 0.0949 µM, first compound 0.316 µM): 71.8%
- viability, T/C (second compound 0.0949 µM, first compound 1 µM): 87.6%
- viability, T/C (second compound 0.3 µM, first compound 0.00316 µM): 95.4%
- viability, T/C (second compound 0.3 µM, first compound 0.01 µM): 75.1%
- viability, T/C (second compound 0.3 µM, first compound 0.0316 µM): 73%
- viability, T/C (second compound 0.3 µM, first compound 0.1 µM): 70.2%
- viability, T/C (second compound 0.3 µM, first compound 0.316 µM): 74.6%
- viability, T/C (second compound 0.3 µM, first compound 1 µM): 79.4%

SMILES: NC1c2ccccc2OC12CCN(c1cnc3c(N4CCCc5ncccc54)n[nH]c3n1)CC2 (stereo unspecified)
- viability, T/C (compound 0.0316 µM): 106% [middle of 4 runs]
- IC50 (curve of compound): 4450 nM and > 10000 nM and 9130 nM

SMILES: C=CC(=O)Nc1cc(Nc2nccc(-c3cn(C)c4ccccc34)n2)c(OC)cc1N(C)CCN(C)C + C#Cc1c(F)ccc2cc(O)cc(-c3ncc4c(N5CC6CCC(C5)N6)nc(OCC56CCCN5CC(F)C6)nc4c3F)c12
- IC50 (curve of first compound, second compound 0.0316 µM): > 1000 nM
- IC50 (curve of first compound, second compound 0.1 µM): > 1000 nM
- IC50 (curve of first compound, second compound 0.316 µM): > 1000 nM
- IC50 (curve of first compound, second compound 1 µM): > 1000 nM
- IC50 (curve of first compound, second compound 3.16 µM): 535 nM
- IC50 (curve of first compound, second compound 10 µM): < 3.16 nM
- viability, T/C (second compound 0.0316 µM, first compound 0.00316 µM): 109%
- viability, T/C (second compound 0.0316 µM, first compound 0.01 µM): 105%
- viability, T/C (second compound 0.0316 µM, first compound 0.0316 µM): 106%
- viability, T/C (second compound 0.0316 µM, first compound 0.1 µM): 109%
- viability, T/C (second compound 0.0316 µM, first compound 0.316 µM): 108%
- viability, T/C (second compound 0.0316 µM, first compound 1 µM): 93%
- viability, T/C (second compound 0.1 µM, first compound 0.00316 µM): 108%
- viability, T/C (second compound 0.1 µM, first compound 0.01 µM): 114%
- viability, T/C (second compound 0.1 µM, first compound 0.0316 µM): 106%
- viability, T/C (second compound 0.1 µM, first compound 0.1 µM): 100%
- viability, T/C (second compound 0.1 µM, first compound 0.316 µM): 101%
- viability, T/C (second compound 0.1 µM, first compound 1 µM): 90.4%
- viability, T/C (second compound 0.316 µM, first compound 0.00316 µM): 109%
- viability, T/C (second compound 0.316 µM, first compound 0.01 µM): 102%
- viability, T/C (second compound 0.316 µM, first compound 0.0316 µM): 100%
- viability, T/C (second compound 0.316 µM, first compound 0.1 µM): 112%
- viability, T/C (second compound 0.316 µM, first compound 0.316 µM): 98%
- viability, T/C (second compound 0.316 µM, first compound 1 µM): 83.6%
- viability, T/C (second compound 1 µM, first compound 0.00316 µM): 104%
- viability, T/C (second compound 1 µM, first compound 0.01 µM): 105%
- viability, T/C (second compound 1 µM, first compound 0.0316 µM): 98.5%
- viability, T/C (second compound 1 µM, first compound 0.1 µM): 93.2%
- viability, T/C (second compound 1 µM, first compound 0.316 µM): 86.9%
- viability, T/C (second compound 1 µM, first compound 1 µM): 75.1%
- viability, T/C (second compound 3.16 µM, first compound 0.00316 µM): 74.8%
- viability, T/C (second compound 3.16 µM, first compound 0.01 µM): 74.3%
- viability, T/C (second compound 3.16 µM, first compound 0.0316 µM): 81%
- viability, T/C (second compound 3.16 µM, first compound 0.1 µM): 81.8%
- viability, T/C (second compound 3.16 µM, first compound 0.316 µM): 59.2%
- viability, T/C (second compound 3.16 µM, first compound 1 µM): 38.9%
- viability, T/C (second compound 10 µM, first compound 0.00316 µM): 47.2%
- viability, T/C (second compound 10 µM, first compound 0.01 µM): 45.9%
- viability, T/C (second compound 10 µM, first compound 0.0316 µM): 53%
- viability, T/C (second compound 10 µM, first compound 0.1 µM): 40.4%
- viability, T/C (second compound 10 µM, first compound 0.316 µM): 35.4%
- viability, T/C (second compound 10 µM, first compound 1 µM): 29.5%
